Laboratory results published in patent US8476439B2, “Pyridine classical cannabinoid compounds and related methods of use” (priority 2008, dated 2013).

Tested on: glioblastoma brain cancer cell line LN-229
Experiment: Cytotoxicity assay (CCK8 viability)
Type: cell-based
Conditions: Homo sapiens, cytotoxicity against LN-229, 18 hours incubation, 1% FBS media
Description: Cytoxocity assay: Cells were seeded on a 96 well polystyrene plate in full serum media at a density of 75,000 cells per milliliter, 100 μL per well. Plates were incubated at 37° C. and 5% CO2 for 24 hours to allow cell attachment. Drug solutions were prepared in DMSO at 100× concentration and mixed 1:100 in 1% FBS media to yield the desired concentration. Drug-media mixtures were vortexed immediately prior to administration to cells. Full serum media was removed and replaced with drug-media mixtures and incubated for 18 hours. 10 μL of Cell Counting Kit 8 (CCK8, Dojindo# CK04-11) was added to each well to colormetrically assess viability. After 2-4 hours of incubation with the CCK8 dye, absorbance was read at 450 nm by a BioTek Synergy 2 plate reader.
The cytotoxicity of selected compounds against the glioblastoma brain cancer cell line LN-229 is depicted in Table 1.

Q: Which EC50 does the source give for `CCCCCCC(C)(C)c1cc2c(c(O)n1)[C@H]1C[C@@H](C)CC[C@H]1C(C)(C)O2` [Compound 6c, (6aR, 9S, 10aS)-6,6,9-trimethyl-3-(2-methyloctan-2-yl)-6a,7,8,9,10,10a-hexahydro-6H-isochromeno[4,3-c]pyridin-1-ol] here?
A: 1830 nM

Q: For `CCCCCCC(C)(C)c1cc2c(c(O)n1)[C@@H]1C[C@H](C)CC[C@@H]1C(C)(C)O2` [Compound 6b, (6aS,9R,10aR)-6,6,9-trimethyl-3-(2-methyloctan-2-yl)-6a,7,8,9,10,10a-hexahydro-6H-isochromeno[4,3-c]pyridin-1-ol], which EC50 is on record?
A: 2430 nM
